Assay results published in US12723096B2, “Regimens and methods of treating multiple sclerosis using ofatumumab” (Novartis AG, priority 2016, dated 2026).

Legend:
relapsing MS patients = conditions: Phase 2; cited from earlier work
patients with RMS = conditions: 2 Phase 3 trials; over 2 years; cited from earlier work
[1] = Phase I/II study of single low-dose SC ofatumumab in rheumatoid arthritis: safety and tolerability; assay type: in vivo, human; conditions: RA patients; single doses up to 60 mg, without CS premedication
Method: (§1) Ofatumumab targets a novel epitope on the CD20 molecule distinct from rituximab (RTX), a chimeric anti-CD20 MAb. RTX studies have utilized high intravenous (IV) doses (two 1000 mg doses 14 days apart) leading to very rapid B cell lysis resulting in infusion reactions despite the use of IV corticosteroid (CS) premedication. The first study involving ofatumumab was a phase I/II study to investigate the use of a low dose subcutaneous (SC) formulation of ofatumumab in rheumatoid arthritis (RA), administered without CS, potentially providing more controlled B cell depletion than that seen in the RTX studies. The primary objective was to investigate the safety and tolerability of a single SC dose of ofatumumab in rheumatoid arthritis (RA) patients on background methotrexate (MTX). Secondary objectives included investigating the minimum dose to achieve target peripheral B-cell depletion, the pharmacodynamic dose-response curve and B-cell repletion profile. […] Single doses up to 60 mg were tolerated and may provide a method of achieving B-cell depletion without additional CS premedication. This study established that the duration of peripheral B cell depletion increases with dose of ofatumumab (ofatumumab), an anti-CD20 antibody.

[2] = in vivo
Method: (§2) In this study, called MIRROR (MRI study In RRMS: evaluating ofatumumab Regimen), patients received ofatumumab 3 mg, 30 mg, or 60 mg every 12 weeks (q12w), or ofatumumab 60 mg every 4 weeks (q4w). To evaluate whether tolerability to the higher ofatumumab doses (30 mg and 60 mg) could be improved by the administration of an initial, lower, conditioning dose of ofatumumab (theoretically leading to the gradual lysis of B cells and potentially reducing cytokine release reactions), patients in the 30 mg q12w, 60 mg q12w and 60 mg q4w dose groups were randomized (1:1) to receive either placebo or a conditioning dose of ofatumumab 3 mg at week 0.

patients with RRMS = conditions: iv 100, 300, 700 mg; each dose level, both treatment periods; cited from earlier work
[3] = oncology studies; Arzerra US prescribing information 2016; cited from earlier work
CD19+ B cells = assay: Study OMS112831/MIRROR: CD19 B-cell counts; assay type: in vivo, human
Method: as §2

circulating B-cell = conditions: iv 100, 300, 700 mg; each dose level; cited from earlier work
[4] = test system: relapsing-remitting multiple sclerosis (RRMS); assay: Study OMS112831/MIRROR, repeat-dose SC ofatumumab in RRMS: brain MRI lesions and relapses; assay type: in vivo, human; conditions: for reduction of mean cumulative number of new gadolinium-enhancing lesions vs placebo: p<0.001
Source text: The primary endpoint was the cumulative number of new gadolinium-enhancing lesions during weeks 0-12 on brain magnetic resonance imaging (MRI). Other endpoints included • (i) the cumulative number of new Gd-enhancing lesions at other time points; • (ii) (ii) the total volume at weeks 12 and 24 of a) new Gd-enhancing lesions, b) new/newly enlarged T2 lesions, and c) T1 hypointense lesions; • (iii) the proportion of patients free from relapses; • (iv) Expanded Disability Status Scale (EDSS) scores; • (v) Multiple Sclerosis Functional Composite (MSFC) and their component scores; • (vi) Modified Fatigue Impact Scale (MFIS); and • (vii) Evaluation of the use of the initial conditioning ofatumumab dose.

peripheral B-cell = assay: Phase I/II study of single low-dose SC ofatumumab in rheumatoid arthritis: peripheral B-cell depletion; assay type: in vivo, human; conditions: RA patients on stable MTX; single SC doses of 30, 60 or 100 mg
Method: as §1

## ocrelizumab
Relapsing MS patients
  MRI-measured inflammatory activity: marked reductions
Patients with RMS
  relapse rates vs interferon beta 1a: significantly reduced

## ofatumumab
[1]
  tolerability of single SC dose: tolerated
[2]
  adverse events versus lower dose regimens of 3 or 30 mg q12 weeks: more adverse events
  injection-related reactions (most commonly reported AE): 52%
  injection-related reactions mild/moderate in severity: 97 % of the events
  opportunistic infections: no cases
  overall safety and tolerability: safe and well tolerated
Patients with RRMS
  reduction in MRI lesion activity versus placebo: up to 96%
[3]
  incidence of anti-drug antibodies (ADA) against ofatumumab: < 1 % of patients
CD19+ B cells; 3, 30, 60 mg q12w, 60 mg q4w SC
  depletion of CD19 B-cells: dose-dependently
CD19+ B cells; all treatments, over 60 weeks of follow up, compared to high-dose i.v. anti-CD20 antibodies
  B-cell repopulation once dosing ceased: relatively rapid B-cell repopulation
CD19+ B cells; monthly dosing (60 mg q4 weeks)
  B-cell repletion during the inter-dosing interval: no signs of B-cell repletion
Circulating B-cell
  circulating B-cell counts: profound reduction
[4]; 3 mg every 12 weeks
  MRI effect: clear MRI effect
[4]; 30 mg every 12 weeks
  MRI efficacy: very close to maximal MRI efficacy
[4]; 60 mg every 4 weeks
  added efficacy compared with 60 mg every 12 weeks: didn't add any efficacy
[4]; weeks 0-12
  reduction of cumulative new/newly enlarged T2 lesions vs placebo: 60-72%
  reduction of mean cumulative number of new gadolinium-enhancing lesions vs placebo: 65%
[4]; weeks 0-12, 17/164 patients
  patients who experienced a relapse: 10%
[4]; weeks 4-12, post hoc analysis, cumulative ofatumumab doses 2::30 mg
  reduction of mean cumulative number of new gadolinium-enhancing lesions vs placebo: ≥ 90%
Peripheral B-cell
  peripheral B-cell depletion: profound and sustained peripheral B-cell depletion

## rituximab
Relapsing MS patients
  MRI-measured inflammatory activity: marked reductions
